From PubChem BioAssay (NCI)
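Five concentrations, 48 hours, 96-well plates. TGI: total growth inhibition.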 Where a SMILES comes first, the peptide text is derived from it. The star is where a group is joined. Boc = CC(C)(C)OC(=O)*; OBn = c1ccc(CO*)cc1; Bn = c1ccc(C*)cc1

Tests used:
Experiment in all cases: DTP human tumour cell line panel, 48 h
M14 melanoma = test system: M14 melanoma
HCC-2998 colon = test system: HCC-2998 colon
DU-145 prostate = test system: DU-145 prostate
OVCAR-8 ovarian = test system: OVCAR-8 ovarian
A498 renal = test system: A498 renal
NCI-H23 lung = test system: NCI-H23 lung
BT-549 breast = test system: BT-549 breast
SF-268 CNS = test system: SF-268 CNS
MALME-3M melanoma = test system: MALME-3M melanoma
MOLT-4 leukemia = test system: MOLT-4 leukemia

| SMILES | TGI (M14 melanoma) [µM] | TGI (HCC-2998 colon) [µM] | TGI (DU-145 prostate) [µM] | TGI (OVCAR-8 ovarian) [µM] | TGI (A498 renal) [µM] | TGI (NCI-H23 lung) [µM] | TGI (BT-549 breast) [µM] | TGI (SF-268 CNS) [µM] | TGI (MALME-3M melanoma) [µM] | TGI (MOLT-4 leukemia) [µM] |
| --- | --- | --- | --- | --- | --- | --- | --- | --- | --- | --- |
| CN(CCN(C)Cc1ccc(Cl)c(Cl)c1)CCN1CCCC1 | > 54.4 | 32.2 | > 100 | > 100 | 35.3 | > 100 | > 100 | > 100 | 35.8 | > 72.4 |
| c1ccc(C[P+]2(c3ccccc3)CCCCC2)cc1 | > 100 | > 100 | – | > 100 | > 100 | > 100 | – | – | > 100 | > 100 |
| CC(C)CC(NC(=O)C(CCC(=O)OCc1ccccc1)NC(=O)OC(C)(C)C)C(=O)NC(COCc1ccccc1)C(=O)NC(Cc1ccccc1)C(=O)O (centres undefined) (Boc-E(OBn)LS(Bn)F-OH; configuration not given here) | > 100 | > 100 | – | > 100 | > 100 | > 100 | > 100 | – | > 100 | > 100 |
| COc1cc(C(C)(C)C)c(OC(=O)/C=C/C(=O)O/C=C/[N+](=O)[O-])c(C(C)(C)C)c1 | 65.6 | > 100 | > 100 | > 100 | 96.6 | 42.6 | – | 75.7 | – | > 100 |
| NC(=O)NC1=NCCC(=O)N1CCc1c[nH]c2ccccc12 | 29.3 | 44.4 | 52 | 32.2 | 46.1 | 43.4 | – | 47 | 36.9 | 39.1 |
| CC(C)OCC(O)COc1cc(=O)oc2ccccc12 (centres undefined) | > 100 | > 100 | > 100 | > 100 | – | > 100 | – | > 100 | > 100 | > 100 |
| O=c1[nH]/c(=C/c2cccs2)c(=O)[nH]/c1=C/c1ccc(OCc2ccccc2)cn1 | 0.0381 | 0.853 | 5.04 | 65.4 | 1.15 | 1.7 | 3.75 | > 36.3 | 0.726 | > 35.8 |
| C/C(=C/CC[C@](C)(OC1OC(CO)C(O)C(O)C1OC1OC(C)C(O)C(O)C1O)[C@H]1CC[C@]2(C)[C@@H]1CC[C@@H]1[C@@]3(C)CC[C@H](O)C(C)(C)[C@@H]3C[C@H](O)[C@]12C)CO (some centres undefined) | > 100 | – | > 100 | > 100 | > 100 | > 100 | > 100 | > 100 | > 100 | > 100 |
| O=C1CCCn2c3ccccc3c3ccnc1c32 | – | > 100 | – | > 100 | 32.2 | > 100 | – | > 100 | > 100 | > 100 |
| Oc1cccc(-c2cc(=S)ss2)c1 | 37.7 | 32.4 | – | 49.9 | – | 23.1 | 35.8 | 32.6 | 32.5 | > 100 |
| CC1CCC(O)/C=C/C(=O)OC(C)C(O)/C=C/C(=O)O1 (centres undefined) | > 100 | > 100 | > 100 | > 100 | > 100 | > 100 | > 100 | > 100 | > 100 | > 100 |
| COC(CO[Si](C)(C)N[Si](C)(C)OCC(OC)c1ccccc1)c1ccccc1 (centres undefined) | > 100 | > 100 | > 100 | > 100 | > 100 | > 100 | > 100 | – | – | > 100 |
| CCOC(=O)n1c2ccccc2c2c(O)c(OC)c3c(c21)C(=O)NC3=O | > 100 | > 100 | > 100 | > 100 | > 100 | > 100 | > 100 | – | 95.4 | > 100 |
| NC(=O)c1ccc(N)nc1 | > 400 | > 400 | > 400 | > 400 | > 400 | > 400 | > 400 | > 400 | > 400 | > 400 |
| CC12CCC3=C(CSC4=C3CSc3ccccc34)C1=CCCC2=O (centres undefined) | > 100 | > 100 | – | > 100 | – | > 100 | – | > 100 | > 100 | > 100 |
| CCOC(=O)Cn1c(=O)c2cc(C)cc3c(Cl)nc4c(OC)c(OC)cc1c4c32 | > 100 | > 100 | > 100 | > 100 | – | > 100 | > 100 | > 100 | > 100 | > 100 |
| COc1c(Cl)ccc(Cl)c1-c1nnc(-c2c(Cl)c(Cl)c(Cl)c(Cl)c2-c2nc3ccc(C(=O)c4ccccc4)cc3[nH]2)o1 | > 100 | – | > 100 | > 100 | 85.5 | > 100 | > 100 | > 100 | > 100 | > 100 |
| O=c1[nH]nc(Nc2ccccc2)c2nnn(Cc3ccccc3)c12 | > 100 | > 100 | > 100 | > 100 | > 100 | > 100 | > 100 | > 100 | – | > 100 |
| C=CCCCN1C(=O)C2C3c4ccccc4C(C=O)(c4ccccc43)C2C1=O (centres undefined) | – | 28.5 | 26.1 | 26.5 | – | 33 | – | 59 | 26.4 | 19.4 |
| O=C(O)CC(Cc1ccccc1)C(=O)O (centres undefined) | > 100 | > 100 | > 100 | > 100 | > 100 | > 100 | > 100 | > 100 | > 100 | > 100 |
| CCCCOP(=O)(OCCCC)C(NS(=O)(=O)c1ccccc1)(C(=O)OCC)C(F)(F)F (centres undefined) | 68 | > 100 | > 100 | > 100 | 76.1 | > 100 | – | > 100 | 45.4 | 58.1 |
| COc1cc2[nH]c(=O)[nH]c2c2c(C)c[nH]c12 | > 100 | > 100 | > 100 | > 100 | > 100 | > 100 | > 100 | > 100 | > 100 | > 100 |
| Cc1cc([C@H](C#N)c2nc3ccccc3s2)nc(Cl)n1 | 79.2 | 16.3 | 91.7 | 14.3 | 31.3 | 15 | 35.6 | 24 | 17 | > 100 |

| SMILES | TGI (M14 melanoma) [µM] | TGI (HCC-2998 colon) [µM] | TGI (DU-145 prostate) [µM] | TGI (OVCAR-8 ovarian) [µM] | TGI (A498 renal) [µM] | TGI (NCI-H23 lung) [µM] | TGI (BT-549 breast) [µM] | TGI (SF-268 CNS) [µM] | TGI (MALME-3M melanoma) [µM] | TGI (MOLT-4 leukemia) [µM] |
| --- | --- | --- | --- | --- | --- | --- | --- | --- | --- | --- |
| Nc1nc(-c2ccccc2)cc(-c2ccc(F)cc2)c1-c1ccc(Cl)cc1 | > 100 | > 100 | > 100 | > 100 | – | > 100 | > 100 | > 100 | > 100 | > 100 |
| O=C1NC(N2CCOCC2)=N/C1=C\c1ccccc1 | > 100 | > 100 | > 100 | > 100 | – | > 100 | > 100 | > 100 | > 100 | > 100 |
| CC(=O)O/N=C1\C=Cc2c(no[n+]2[O-])C1=O | 33.2 | 38.7 | 32 | 25.4 | 30.3 | 35.5 | – | 38.1 | 28.1 | 36.6 |
| Nc1c(Cl)ncnc1NCC1(CO)CCC1 | – | – | > 100 | > 100 | > 100 | > 100 | > 100 | > 100 | > 100 | > 100 |
| O=C(O)C(C1NCCS1)N1Cc2ccccc2C1 (centres undefined) | > 100 | – | > 100 | > 100 | > 100 | > 100 | > 100 | – | > 100 | > 100 |
| COC(=O)c1ccc2c(c1)CC1(C2)Cc2ccc3c(c2C1)CCC3 (centres undefined) | 13 | > 100 | > 100 | > 100 | – | > 100 | – | > 100 | 60.5 | 37.4 |
| CS(=O)(=O)c1nc(-c2cc3c(c(S(C)(=O)=O)n2)CCC3)cc2c1CCC2 | > 100 | > 100 | > 100 | > 100 | > 100 | > 100 | > 100 | > 100 | – | > 100 |
| COc1cc(/C=C/C(=O)OC[C@]23O[C@H]2[C@@H](OC2OC(C)C(O)C(O)C2O)C2C=CO[C@@H](OC4OC(CO)C(O)C(O)C4O)C23)ccc1O (some centres undefined) | > 100 | > 100 | > 100 | > 100 | – | > 100 | > 100 | > 100 | > 100 | > 100 |
| C/C(=N\NC(=S)N/N=C(\C)c1ccccn1)c1ccccn1 | 4.88 | – | > 100 | > 100 | 82.6 | > 100 | > 100 | 16.3 | > 100 | 5.9 |
| COc1ccc(/C=N/N=C(N)N)c(C(=O)O)c1OC | > 100 | – | – | > 100 | > 100 | > 100 | – | > 100 | – | > 100 |
| CSCC[C@@H](NC(=O)[C@H](CC(C)C)NC(=O)C(Cc1cnc[nH]1)NC(=O)CNC(=O)[C@@H](NC(=O)[C@H](C)NC(=O)[C@H](Cc1cn(C=O)c2ccccc12)NC(=O)[C@H](CCC(N)=O)NC(=O)[C@@H](N)CC(N)=O)C(C)C)C(N)=O (some centres undefined) | – | > 100 | – | > 100 | > 100 | > 100 | – | > 100 | > 100 | > 100 |
| O=C(/C=C/c1ccccc1O)CC(=O)/C=C/c1ccccc1O | > 31.6 | 15.8 | > 31.6 | 23.3 | 51.3 | 16.9 | 45.7 | – | 17.5 | > 31.6 |
| C=CCn1c(-c2ccc(N=NNc3ccc(-c4n[nH]c(=S)n4CC=C)cc3)cc2)n[nH]c1=S | > 100 | – | 16 | 8.84 | > 100 | > 100 | 6.68 | 21.5 | > 100 | – |
| NCCCCN(CCCN)C(=O)OCc1ccccc1 | > 100 | > 100 | > 100 | > 100 | > 100 | > 100 | > 100 | > 100 | – | > 100 |
| C(=C/c1ccc2nc(-c3ccc(/C=C/C=N/NC4=NCCCN4)cc3)cn2c1)/C=N/NC1=NCCCN1 | > 100 | > 100 | 41.6 | 39 | > 100 | > 100 | > 100 | 54.7 | – | > 100 |
| Brc1ccc2c(c1)[C@H]1CCc3c([nH]c4ccccc34)[C@H]1N2 | 29.9 | 25.5 | 25.5 | 27.4 | – | 25 | 34.7 | 32.4 | 22.8 | 16.8 |
| NC1=CN2c3ccccc3N(CC(=O)N3CCOCC3)C2C=C1 (centres undefined) | > 100 | – | > 100 | > 100 | > 100 | > 100 | > 100 | > 100 | > 100 | > 100 |
| Clc1ccc2nc3c(c(-c4ccccc4)nn3-c3ccccc3)c(-c3ccccc3)c2c1 | > 100 | > 100 | > 100 | > 100 | – | > 100 | > 100 | > 100 | > 100 | > 100 |
| CS(=O)(=O)c1ccc(C2=C(c3ccccc3)C(=O)OC2)cc1 | > 100 | > 100 | > 100 | > 100 | > 100 | > 100 | – | > 100 | > 100 | > 100 |
| NC(=O)c1ncn(C2CCC(CP(=O)(O)O)C2)c1N (centres undefined) | > 100 | > 100 | > 100 | > 100 | – | > 100 | – | > 100 | > 100 | > 100 |
| Cc1cc(CC(O)(C(F)(F)F)C(F)(F)F)cc(CC(O)(C(F)(F)F)C(F)(F)F)n1 | 12 | 14.2 | 7.94 | 12.4 | 7.87 | 5.31 | – | 10.1 | 4.3 | 13.2 |
| COC(=O)[C@@]12CC3CN(Cc4c1[nH]c1ccccc41)C2CC3=O | > 100 | > 100 | > 100 | > 100 | – | > 100 | > 100 | > 100 | > 100 | > 100 |
